Experimental data reported in patent publication US20120065152A1 (SHIRE LLC, priority 2010, published 2012).
“And” between values parts separate entries of the source, which are not always exact repeats. Equal entries are not always repeated. Structures can show the parent of a compound that is named as a salt.

Assays:
[1] = Stability studies on guanfacine prodrugs in buffers; type: physicochemical
[2] = pH 1.2, 37° C., 0.1M HCl/NaCl buffer, 1 h
[3] = pH 1.2, 37° C., 0.1M HCl/NaCl buffer, time 0
[4] = pH 3.0, 20° C., 0.1M citrate buffer, 2 h
[5] = pH 3.0, 20° C., 0.1M citrate buffer, time 0
[6] = pH 6.8, 37° C., 0.1M phosphate buffer, 2 h
[7] = pH 6.8, 37° C., 0.1M phosphate buffer, time 0
[8] = pH 7.4, 37° C., 0.1M phosphate buffer, 2 h
[9] = pH 7.4, 37° C., 0.1M phosphate buffer, time 0
[10] = DMSO, organic solvent or mixture, Solubility, in DMSO
[11] = water/CH3CN (1:1), aqueous with cosolvent or surfactant or cyclodextrin, Solubility, in water/CH3CN (1:1)
[12] = DMSO, organic solvent or mixture
[13] = pH 1.2, 37° C., 0.1M HCl/NaCl buffer, time 0, Hydrochloride
[14] = pH 6.8, 37° C., 0.1M phosphate buffer, 2 h, Hydrochloride
[15] = pH 7.4, 37° C., 0.1M phosphate buffer, 2 h, Hydrochloride

SMILES | Active drug [1, 2] | Active drug [1, 3] | Pro-drug [1, 3] | Active drug [1, 4] | Active drug [1, 5] | Pro-drug [1, 5] | Active drug [1, 6] | Active drug [1, 7] | Pro-drug [1, 7] | Active drug [1, 8] | Active drug [1, 9] | Pro-drug [1, 9] | solubility (Solubility; [10]) [µg/mL] | solubility (Solubility; water, Solubility, in water) [µg/mL] | other results
CC(C)COC(=O)NC(N)=NC(=O)Cc1c(Cl)cccc1Cl.Cl [Compound 8, 1-{N′-[2-(2,6-Dichloro-phenyl)-acetyl]-guanidinocarbonyloxy}-2-methylpropane Hydrochloride] | 0.0 | 0.0 | 100 | 0.0 | 0.0 | 100 | 0.0 | 0.0 | 100 | 0.0 | 0.0 | 100 | > 10000 | < 1000 | Pro-drug ([1]; pH 1.2, 37° C., 0.1M HCl/NaCl buffer, 1 h, listed as Guanfacine Isobutyl Carbamate Hydrochloride, Hydrochloride): 95.1 and 95.0; Pro-drug ([1]; pH 3.0, 20° C., 0.1M citrate buffer, 2 h, listed as Guanfacine Isobutyl Carbamate Hydrochloride, Hydrochloride): 95.2 and 95.3; Pro-drug ([1]; pH 6.8, 37° C., 0.1M phosphate buffer, 2 h, listed as Guanfacine Isobutyl Carbamate Hydrochloride, Hydrochloride): 98.2 and 97.9; Pro-drug ([1]; pH 7.4, 37° C., 0.1M phosphate buffer, 2 h, listed as Guanfacine Isobutyl Carbamate Hydrochloride, Hydrochloride): 95.3 and 96.7; solubility (Solubility; [11]): > 1000 µg/mL
CC(C)(C)COC(=O)NC(N)=NC(=O)Cc1c(Cl)cccc1Cl.Cl [Compound 9, 1-{N′[2-(2,6-Dichloro-phenyl)-acetyl]guanidinocarbonyloxy}-2,2-dimethylpropane Hydrochloride] | 0.0 | 0.0 | 100 | 0.0 | 0.0 | 100 | 0.0 | 0.0 | 100 | 0.0 | 0.0 | 100 | > 10000 | < 1000 | Pro-drug ([1]; pH 1.2, 37° C., 0.1M HCl/NaCl buffer, 1 h, listed as Guanfacine Neopentyl Carbamate Hydrochloride, Hydrochloride): 94.7 and 93.9; Pro-drug ([1]; pH 3.0, 20° C., 0.1M citrate buffer, 2 h, listed as Guanfacine Neopentyl Carbamate Hydrochloride, Hydrochloride): 96.1 and 96.8; Pro-drug ([1]; pH 6.8, 37° C., 0.1M phosphate buffer, 2 h, listed as Guanfacine Neopentyl Carbamate Hydrochloride, Hydrochloride): 98.3 and 97.9; Pro-drug ([1]; pH 7.4, 37° C., 0.1M phosphate buffer, 2 h, listed as Guanfacine Neopentyl Carbamate Hydrochloride, Hydrochloride): 99.2 and 98.5; solubility (Solubility; [11]): > 1000 µg/mL
NC(=NC(=O)Cc1c(Cl)cccc1Cl)NC(=O)OCc1ccccc1 [Compound 10, {N′-[2-(2,6-Dichloro-phenyl)-acetyl]guanidino-carbonyloxy}toluene Hydrochloride] | – | – | – | – | – | – | – | – | – | – | – | – | > 10000 | < 1000 | solubility (Solubility; CH3CN, organic solvent or mixture, Solubility, in CH3CN): > 5000 µg/mL
CO[C@H]1O[C@H](COC(=O)NC(=N)NC(=O)Cc2c(Cl)cccc2Cl)[C@@H](O)[C@H](O)[C@H]1O.Cl [Compound 16, 2-(2,6-dichlorophenyl)-N-(N-((((2R,3S,4S,5R,6S)-3,4,5-trihydroxy-6-methoxytetrahydro-2H-pyran-2-yl)methoxy)carbonyl)carbamimidoyl)acetamide hydrochloride] | – | – | – | – | – | – | – | – | – | – | – | – | – | – | Solubility (in words) (Solubility): water, DMSO
N=C(NC(=O)Cc1c(Cl)cccc1Cl)NC(=O)Oc1ccc(CC(=O)O)cc1 [Compound 25, Hydrochloride] | – | – | – | – | – | – | – | – | – | – | – | – | – | – | solubility (Solubility; [12]): > 23000 µg/mL; solubility (Solubility; water): < 2300 µg/mL
Cl.N=C(NC(=O)Cc1c(Cl)cccc1Cl)NC(=O)Oc1cccc(C(=O)O)c1 [Compound 28, 3-[({[2-(2,6-dichlorophenyl)acetamido]methanimidoyl}carbamoyl)oxy]benzoic acid hydrochloride] | – | – | – | – | – | – | – | – | – | – | – | – | – | – | Solubility (in words) (Solubility): insoluble in water; solubility (Solubility; [12]): > 20000 µg/mL

Further lines, with some results ahead:

Active drug [1, 2] | Active drug [1, 3] | Pro-drug [1, 3] | Active drug [1, 4] | Active drug [1, 5] | Pro-drug [1, 5] | Active drug [1, 6] | Active drug [1, 7] | Pro-drug [1, 7] | Active drug [1, 8] | Active drug [1, 9] | Pro-drug [1, 9] | solubility (Solubility; [10]) [µg/mL] | solubility (Solubility; water, Solubility, in water) [µg/mL] | SMILES | other results
0.0 | 0.0 | 100 | 0.0 | 0.0 | 100 | 0.0 | 0.0 | 100 | 0.0 | 0.0 | 100 | > 10000 | < 1000 | [2H]C([2H])([2H])C([2H])([2H])OC(=O)NC(=N)NC(=O)Cc1c(Cl)cccc1Cl [Compound 13, {N′-[2-(2,6-Dichloro-phenyl)-acetyl]-guanidinocarbonyloxy} d5-ethane] | Pro-drug ([1]; pH 1.2, 37° C., 0.1M HCl/NaCl buffer, 1 h, listed as Guanfacine D5-Ethyl Carbamate): 97.6 and 96.6; Pro-drug ([1]; pH 3.0, 20° C., 0.1M citrate buffer, 2 h, listed as Guanfacine D5-Ethyl Carbamate): 98.7 and 98.3; Pro-drug ([1]; pH 6.8, 37° C., 0.1M phosphate buffer, 2 h, listed as Guanfacine D5-Ethyl Carbamate): 99.4 and 99.2; Pro-drug ([1]; pH 7.4, 37° C., 0.1M phosphate buffer, 2 h, listed as Guanfacine D5-Ethyl Carbamate): 99.4 and 99.2
0.0 | 0.0 | 100 | 0.0 | 0.0 | 100 | 0.0 | 0.0 | 100 | 0.0 | 0.0 | 100 | > 10000 | < 1000 | CC(C)[C@@H]1CC[C@@H](C)C[C@H]1OC(=O)NC(N)=NC(=O)Cc1c(Cl)cccc1Cl.Cl [Compound 29, 1-(R)-{N′-[2-(2,6-Dichloro-phenyl)-acetyl]-guanidinocarbonyloxy}-2-(S)-isopropyl-5-(R)-methyl-cyclohexane Hydrochloride] | Pro-drug ([1]; pH 1.2, 37° C., 0.1M HCl/NaCl buffer, 1 h, listed as Guanfacine-(−)-Menthyl Carbamate Hydrochloride, Hydrochloride): 94.6 and 95.5; Pro-drug ([1]; pH 3.0, 20° C., 0.1M citrate buffer, 2 h, listed as Guanfacine-(−)-Menthyl Carbamate Hydrochloride, Hydrochloride): 98.3 and 99.6; Pro-drug ([1]; pH 6.8, 37° C., 0.1M phosphate buffer, 2 h, listed as Guanfacine-(−)-Menthyl Carbamate Hydrochloride, Hydrochloride): 97.9 and 97.3; Pro-drug ([1]; pH 7.4, 37° C., 0.1M phosphate buffer, 2 h, listed as Guanfacine-(−)-Menthyl Carbamate Hydrochloride, Hydrochloride): 94.7 and 96.9; solubility (Solubility; 2.5 mL CH3CN/1 mL H2O, aqueous with cosolvent or surfactant or cyclodextrin, Solubility, in 2.5 mL CH3CN/1 mL H2O): > 1430 µg/mL
0.6 | 0.0 | 100 | 0.0 | 0.0 | 100 | 0.0 | 0.0 | 100 | 0.0 | 0.0 | 100 | > 10000 | < 1000 | Cl.NC(=NC(=O)Cc1c(Cl)cccc1Cl)NC(=O)OCC1CC1 [Compound 31, {N′-[2-(2,6-Dichloro-phenyl)acetyl]-guanidino-carbonyloxy}methylcyclopropane Hydrochloride] | Pro-drug ([1]; pH 1.2, 37° C., 0.1M HCl/NaCl buffer, 1 h, listed as Guanfacine Cyclopropylmethyl Carbamate Hydrochloride, Hydrochloride): 92.9 and 92.7; Pro-drug ([1]; pH 3.0, 20° C., 0.1M citrate buffer, 2 h, listed as Guanfacine Cyclopropylmethyl Carbamate Hydrochloride, Hydrochloride): 98.3 and 98.5; Pro-drug ([1]; pH 6.8, 37° C., 0.1M phosphate buffer, 2 h, listed as Guanfacine Cyclopropylmethyl Carbamate Hydrochloride, Hydrochloride): 97.6 and 97.4; Pro-drug ([1]; pH 7.4, 37° C., 0.1M phosphate buffer, 2 h, listed as Guanfacine Cyclopropylmethyl Carbamate Hydrochloride, Hydrochloride): 99.6 and 99.5; solubility (Solubility; [11]): > 5000 µg/mL
– | – | – | – | 0.0 | 100 | – | 0.0 | 100 | – | 0.0 | 100 | – | – | CC(C)(C)OC(=O)NC(=N)NC(=O)Cc1c(Cl)cccc1Cl.Cl [Guanfacine Tert-Butyl Carbamate Hydrochloride] | Pro-drug [1, 2]: 0.0; Active drug ([1]; pH 1.2, 37° C., 0.1M HCl/NaCl buffer, 1 h, Hydrochloride): 99.7 and 100; Active drug [1, 13]: 8.8 and 9.5; Pro-drug [1, 13]: 91.2 and 90.5; Pro-drug [1, 4]: 34.5; Active drug ([1]; pH 3.0, 20° C., 0.1M citrate buffer, 2 h, Hydrochloride): 66.6 and 65.5; Active drug [1, 14]: 14.2 and 15.2; Pro-drug [1, 14]: 83.6 and 84.9; Active drug [1, 15]: 11.0 and 11.2; Pro-drug [1, 15]: 84.2 and 82.7; solubility (Solubility; in 2 mL CH3CN/1 mL H2O): > 5 mg; solubility (Solubility; in DMSO): > 10000 µg/mL; solubility (Solubility; in water): < 1000 µg/mL
1.7 and 1.8 | 0.5 and 0.6 | 99.5 and 99.4 | 1.2 and 1.3 | 0.4 and 0.5 | 99.6 and 99.5 | 87.1 and 88.1 | 1.6 and 1.4 | 98.4 and 98.6 | 85.4 and 85.8 | – | 99.2 and 98.1 | – | – | N=C(NC(=O)Cc1c(Cl)cccc1Cl)NC(=O)OC[C@@H](N)Cc1cnc[nH]1.O=C(O)C(F)(F)F.O=C(O)C(F)(F)F.O=C(O)C(F)(F)F [Guanfacine-(S)-histidinyl carbamate Tri-trifluoroacetate] | Pro-drug [1, 2]: 84.7 and 83.3; Pro-drug [1, 4]: 98.1 and 97.8; Pro-drug [1, 6]: 0.0; Pro-drug [1, 8]: 0.0; solubility (Solubility; in DMSO): > 20000 µg/mL; solubility (Solubility; in water): > 20000 µg/mL
